# Data reported in patent US20170306042A1, “IMMUNOGENIC MODULATION BY ENDOCRINE DEPRIVATION THERAPY IMPROVES SENSITIVITY OF TUMOR CELLS TO IMMUNE MEDIATED LYSIS” (The United States of America, as represented by the …, priority 2014, published 2017).
# Entries after “also recorded” stand apart in the source; their conditions may differ.
# Key:
# NAIP = NAIP immunohistochemistry in PC-3 xenografts in nude mice; type: in vivo; settings: 10 mg/day, 7 days
# Text: To examine the reduced expression of NAIP in vivo, either LNCaP or PC-3 cells were transplanted into […] nude mice (Charles River, Wilmington, Mass.) (s.c. in the right flank with 5×10^6 LNCaP or PC-3 prostate tumor cells). […] After 7 days of treatment, tumors were subjected to immunohistochemistry staining to detect the presence and intensity of NAIP expression. Specifically, NAIP expression was detected via immunohistochemistry using a rabbit polyclonal antibody to NAIP (Novus Bio, Littleton, Colo.) according to the manufacturer's instructions. Entire slides were digitally scanned by an Aperio ScanScope CS system and analyzed by Aperio ImageScope Viewer software (Aperio Technologies Inc., Vista, Calif.). Statistical analysis was performed using 3-7 murine tumors, each prepared as a complete stained tumor section. Positive tumor regions were determined using the Positive Pixel Count v9 algorithm. Negative controls included omission of primary antibody with PBS and matched rabbit isotype antibody. In all cases, necrotic areas of tumor were excluded from analysis.
# ZR75-1 cells = settings: 10 μM, 48 hours
# Method: (§2) After 48 hours, cells were harvested and stained with the following antibodies: HLA A2-PE-Cy7, MUC-1-FITC, CD54-BV421, CD95-FITC (BD Biosciences, San Jose, Calif.), CEA-APC (Miltenyi Biotec, Auburn, Calif.), TRAIL receptor 1 and TRAIL receptor 2 (R & D Systems, Minneapolis, Minn.). LIVE/DEAD Fixable Violet Dead Cell Stain (Life Technologies, Grand Island, N.Y.) was used to determine cell viability. Cells were incubated with the antibodies for 30 min at 4° C., acquired on a FACS Verse flow cytometer (Becton Dickinson, Franklin Lakes, N.J.), and analyzed using FlowJo software (TreeStar, Inc., Ashland, Oreg.).
# [1] = system: LNCaP control-shRNA (AR+, HLA-A2) cells; settings: 10 μM; P<0.01
# PC-3 cells = experiment: MUC1-specific CTL lysis assay, PC-3 targets; type: cell-based, human; settings: 10 μM, 48 hours, E:T 30:1, vs vehicle
# Method: (§3) At specific time points, cells were harvested and counted. Equal numbers of effector target cells from all treatment were plated with respective cytotoxic T-cells.
# LNCaP/AR(cs) cells = experiment: Cell proliferation and viability, LNCaP/AR(cs); type: cell-based, human
# LNCaP cells [2] = experiment: CEA- or PSA-specific CD8+ T-cell killing, LNCaP targets; type: cell-based, human; settings: 10 μM, 48 hours, P<0.01
# [3] = system: TRAMP-C2 mouse prostate carcinomas; settings: in vitro (Ardiani et al. 2013); cited from earlier work
# [4] = system: castration resistant prostate cancer; settings: AFFIRM trial (Scher et al. 2012); cited from earlier work
# [5] = system: LNCaP AR-shRNA (AR−, HLA-A2) cells; settings: 10 μM
# [6] = system: LNCaP (AR+, HLA-A2) cells; experiment: Cell proliferation and viability by trypan blue exclusion, LNCaP; type: cell-based, human; settings: 10 μM
# Method: Cells were harvested 24, 48, or 72 h after exposure, and the total number of adherent viable cells was determined by trypan blue exclusion. Viability was confirmed by 7AAD staining.
# ZR75-1 (ER+AR+) cells [7] = experiment: CEA-specific CTL lysis assay, ZR75-1 targets; type: cell-based, human; settings: 10 μM, E:T 30:1, vs vehicle
# Method: (§1) The HLA-A2-restricted CEA-specific CTL recognizes the CEA peptide epitope […] (SEQ ID NO: 1) (CAP-1). […] The percentage of tumor lysis was calculated as follows: % tumor lysis=[(experimental cpm−spontaneous cpm)/(maximum cpm−spontaneous cpm)]×100.
# These cells were then used as target cells for CTL-mediated killing assays utilizing CEA-specific CTLs.
# MDA MB 231 cells = settings: 10 μM, 48 hours
# Method: as §2
# [8] = system: LNCaP control-shRNA cells; experiment: CEA-specific CTL lysis assay, LNCaP control-shRNA targets; settings: 10 μM, 48 hours, E:T 30:1, P<0.05
# Method: as §3
# LNCaP cells [9] = experiment: MUC1-specific CTL lysis assay, LNCaP targets; type: cell-based, human; settings: 10 μM, 48 hours, E:T 30:1, vs vehicle
# Method: as §3
# OPG = experiment: ELISA of secreted OPG, MDA MB 231 cells; type: cell-based, human; settings: 10 μM, 48 hours, P<0.05
# Method: ELISA was performed on combined supernatant samples taken following 24 and 48 hours of treatment.
# OPG expression was inhibited in MDA MB 231 cells using siRNA duplexes targeting OPG sequences and control siRNA duplexes (Origene, Rockville, Md.). MDA-MB-231 cells were transfected with OPG or control siRNA according to the manufacturer's instructions. […] Forty-eight hours post siRNA transfection, the MDA MB 231 cells were also used as target cells in CEA-specific CTL and TRAIL-mediated lysis assays as described.
# BT549 (ER−AR+) cells = experiment: CEA-specific CTL lysis assay, BT549 targets; type: cell-based, human; settings: 10 μM, E:T 30:1, vs vehicle, P<0.01
# Method: as §1
# prostate cancer = settings: reported clinical trials; cited from earlier work
# BT549 cells = settings: 10 μM, 48 hours
# Method: as §2
# ZR75-1 (ER+AR+) cells [10] = experiment: Tumor cell proliferation, ZR75-1; type: cell-based, human; settings: 10 μM; 48 or 72 hours; P<0.05 vs vehicle
# Method: At the indicated time points, cells were harvested and the number of viable cells was determined by trypan blue exclusion.
substance,measurement,setting,value
enzalutamide,NAIP expression in PC-3 tumors vs untreated,NAIP,did not mediate significant changes in NAIP expression
same,CEA mean fluorescence intensity,ZR75-1 cells,4690
same,CEA percent positivity,ZR75-1 cells,28.9%
same,Fas mean fluorescence intensity,ZR75-1 cells,1611
same,Fas percent positivity,ZR75-1 cells,26.8%
same,HLA A2 mean fluorescence intensity,ZR75-1 cells,3047
same,HLA A2 percent positivity,ZR75-1 cells,10.0%
same,ICAM-1 mean fluorescence intensity,ZR75-1 cells,2473
same,ICAM-1 percent positivity,ZR75-1 cells,26.1%
same,MUC-1 mean fluorescence intensity,ZR75-1 cells,2203
same,MUC-1 percent positivity,ZR75-1 cells,37.1%
same,Trail R1 mean fluorescence intensity,ZR75-1 cells,4325
same,Trail R1 percent positivity,ZR75-1 cells,7.9%
same,Trail R2 mean fluorescence intensity,ZR75-1 cells,4502
same,proliferation of LNCaP control-shRNA,[1],significantly inhibited the proliferation
same,sensitivity to MUC1-specific CTL-mediated lysis,PC-3 cells,neither enzalutamide nor abiraterone improved PC-3 cells' sensitivity; also recorded: did not improve the sensitivity
same,proliferation of LNCaP/AR(cs) cells,LNCaP/AR(cs) cells; 10 μM,did not inhibit the proliferation
same,inhibition of growth of LNCaP/AR(cs) cells,LNCaP/AR(cs) cells; 30 μM,50%
same,viability of LNCaP/AR(cs) cells,LNCaP/AR(cs) cells; 30 μM,no effect on the cells' viability
same,sensitivity to T-cell killing,LNCaP cells [2],significantly improved the cells' sensitivity
same,sensitivity to gp70-specific CTL killing,[3],improve tumor cells' sensitivity
same,advantage in overall survival compared to placebo,[4],4.8 month
same,growth of LNCaP AR-shRNA,[5],did not affect the growth
same,viability of LNCaP cells,[6]; trypan blue exclusion after 3 days of drug exposure,Neither enzalutamide nor abiraterone affected the viability
same,growth / proliferation of LNCaP cells,"[6]; vs vehicle (DMSO), P<0.01",significantly inhibited the growth
same,sensitivity to CEA-specific CTL-mediated lysis,ZR75-1 (ER+AR+) cells [7],significantly enhanced their sensitivity
same,cell-surface markers with increased expression,MDA MB 231 cells; MDA MB 231 (ER−AR−),"upregulated CEA, ICAM-1 and Trail receptors 1/2"
same,CEA mean fluorescence intensity,MDA MB 231 cells; MDA MB 231,626
same,CEA percent positivity,MDA MB 231 cells; MDA MB 231,9.7%
same,Fas mean fluorescence intensity,MDA MB 231 cells; MDA MB 231,375
same,Fas percent positivity,MDA MB 231 cells; MDA MB 231,9.0%
same,HLA A2 mean fluorescence intensity,MDA MB 231 cells; MDA MB 231,21175
same,HLA A2 percent positivity,MDA MB 231 cells; MDA MB 231,96.4%
same,ICAM-1 mean fluorescence intensity,MDA MB 231 cells; MDA MB 231,7254
same,ICAM-1 percent positivity,MDA MB 231 cells; MDA MB 231,95.3%
same,MUC-1 mean fluorescence intensity,MDA MB 231 cells; MDA MB 231,503
same,Trail R1 mean fluorescence intensity,MDA MB 231 cells; MDA MB 231,1125
same,Trail R1 percent positivity,MDA MB 231 cells; MDA MB 231,19.2%
same,Trail R2 mean fluorescence intensity,MDA MB 231 cells; MDA MB 231,1516
same,sensitivity to CEA-specific CTL-mediated lysis,[8],significantly enhanced the sensitivity
same,sensitivity to MUC1-specific CTL-mediated lysis,LNCaP cells [9],significantly enhanced their sensitivity
same,amount of secreted OPG,OPG,reduced the amount of OPG
same,sensitivity to CEA-specific CTL-mediated lysis,BT549 (ER−AR+) cells,significantly improved their sensitivity
same,prostate cancer patients who did not respond and continued to have rising PSA levels,prostate cancer,more than 30%
same,cell-surface markers with increased expression,BT549 cells; BT549 (ER−AR+),upregulated the expression of ICAM-1 as well as Trail receptors 1 and 2 and the tumor associated antigen CEA
same,CEA mean fluorescence intensity,BT549 cells; BT549,3443
same,CEA percent positivity,BT549 cells; BT549,15.3%
same,Fas mean fluorescence intensity,BT549 cells; BT549,566
same,Fas percent positivity,BT549 cells; BT549,15.8%
same,HLA A2 mean fluorescence intensity,BT549 cells; BT549,2532
same,HLA A2 percent positivity,BT549 cells; BT549,87.6%
same,ICAM-1 mean fluorescence intensity,BT549 cells; BT549,6239
same,ICAM-1 percent positivity,BT549 cells; BT549,26.1%
same,MUC-1 mean fluorescence intensity,BT549 cells; BT549,930
same,MUC-1 percent positivity,BT549 cells; BT549,25.5%
same,Trail R1 mean fluorescence intensity,BT549 cells; BT549,562
same,Trail R1 percent positivity,BT549 cells; BT549,23.6%
same,proliferation of ZR75-1 cells,ZR75-1 (ER+AR+) cells [10],significantly inhibited the proliferation
